Measurements from US8309718B2, “4-pyrazolyl-N-arylpyrimidin-2-amines and 4-pyrazolyl-N-heteroarylpyrimidin-2-amines as janus kinase inhibitors” (Incyte Corporation, priority 2007, dated 2012).

molecular target: T1, human JAK2 (Homo sapiens, UniProt O60674); assay: In vitro JAK kinase assay (HTRF, phosphorylation of biotinylated peptide); format: biochemical; details: catalytic domain a.a. 828-1132, 30 μM ATP, 500 nM peptide, room temperature 1 hr; read-out: JAK-2 IC50
T1 construct: JAK2 (a.a. 828-1132); His tag (N); made in house; host or cells: insect cells (baculovirus)
T1 sequence (O60674 828-1132): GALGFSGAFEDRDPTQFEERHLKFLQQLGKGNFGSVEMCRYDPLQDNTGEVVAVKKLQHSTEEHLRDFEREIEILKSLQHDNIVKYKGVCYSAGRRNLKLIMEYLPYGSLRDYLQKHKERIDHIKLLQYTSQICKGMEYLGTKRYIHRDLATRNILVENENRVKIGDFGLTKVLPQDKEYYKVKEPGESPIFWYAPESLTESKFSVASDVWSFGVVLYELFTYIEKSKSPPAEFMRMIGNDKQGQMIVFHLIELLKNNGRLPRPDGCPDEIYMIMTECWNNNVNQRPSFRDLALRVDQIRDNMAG
Procedure: Compounds herein were tested for inhibitory activity of JAK targets according to the following in vitro assay described in Park et al, Analytical Biochemistry 1999, 269, 94-104. The catalytic domains of human JAK1 (a.a. 837-1142), JAK2 (a.a. 828-1132) and JAK3 (a.a. 781-1124) with an N-terminal His tag were expressed using baculovirus in insect cells and purified. The catalytic activity of JAK1, JAK2 or JAK3 was assayed by measuring the phosphorylation of a biotinylated peptide. The phosphorylated peptide was detected by homogenous time resolved fluorescence (HTRF). IC50s of compounds were measured for each kinase in the reactions that contain the enzyme, ATP and 500 nM peptide in 50 mM Tris (pH 7.8) buffer with 100 mM NaCl, 5 mM DTT, and 0.1 mg/mL (0.01%) BSA. The ATP concentration in the reactions was 90 μM for JAK1, 30 μM for Jak2 and 3 μM for JAK3. Reactions were carried out at room temperature for 1 hr and then stopped with 20 μL 45 mM EDTA, 300 nM SA-APC, 6 nM Eu-Py20 in assay buffer (Perkin Elmer, Boston, Mass.). Binding to the Europium labeled antibody took place for 40 minutes and HTRF signal was measured on a Fusion plate reader (Perkin Elmer, Boston, Mass.). Certain of the above compounds were tested according to this assay.

IC50, < 100 nM:
N#CCC(C1CCC1)n1cc(-c2ccnc(Nc3ccc(N4CCOCC4=O)cc3)n2)cn1 (racemic) [Example 175, 3-cyclobutyl-3-(4-(2-(4-(3-oxomorpholino)phenylamino)pyrimidin-4-yl)-1H-pyrazol-1-yl)propanenitrile]
Cn1ccc(S(=O)(=O)N2CCC(CC(CC#N)n3cc(-c4ccnc(Nc5ccc(C(N)=O)cc5)n4)cn3)CC2)n1 (racemic) [Example 47, 4-(4-(1-(1-cyano-3-(1-(1-methyl-1H-pyrazol-3-ylsulfonyl)piperidin-4-yl)propan-2-yl)-1H-pyrazol-4-yl)pyrimidin-2-ylamino)benzamide]
CC(=O)N1CCN(C(=O)c2ccc(Nc3nccc(-c4cnn(C(CC#N)C5CC5)c4)n3)cc2)CC1 (racemic) [Example 269, 3-(4-(2-(4-(4-acetylpiperazine-1-carbonyl)phenylamino)pyrimidin-4-yl)-1H-pyrazol-1-yl)-3-cyclopropylpropanenitrile]
COC[C@H]1CCCN1C(=O)c1cccc(Nc2nccc(-c3cnn(C(CC#N)C4CCCC4)c3)n2)c1 (mixture of isomers) [Example 162, 3-cyclopentyl-3-(4-(2-(3-((R)-2-(methoxymethyl)pyrrolidine-1-carbonyl)phenylamino)pyrimidin-4-yl)-1H-pyrazol-1-yl)propanenitrile]
N#CCC(C1CCCC1)n1cc(-c2ccnc(Nc3ccc(C(N)=O)cc3)n2)cn1 (racemic) [Example 33, 4-(4-(1-(2-cyano-1-cyclopentylethyl)-1H-pyrazol-4-yl)pyrimidin-2-ylamino)benzamide]
CC(=O)N[C@H]1CCN(C(=O)c2ccc(Nc3nccc(-c4cnn(C(CC#N)C5CCCC5)c4)n3)cc2)C1 (stereo partly drawn) [Example 222, N-((3S)-1-(4-(4-(1-(2-cyano-1-cyclopentylethyl)-1H-pyrazol-4-yl)pyrimidin-2-ylamino)benzoyl)pyrrolidin-3-yl)acetamide]
COc1cnc(Nc2cccc(C(=O)N3CCC(C#N)CC3)c2)nc1-c1cnn(C(CC#N)C2CC2)c1 (racemic) [Example 331, 1-[3-({4-[1-(2-cyano-1-cyclopropylethyl)-1H-pyrazol-4-yl]-5-methoxypyrimidin-2-yl}amino)benzoyl]piperidine-4-carbonitrile]
COc1cnc(Nc2ccc(N3CCOC3=O)cc2)nc1-c1cnn(C(CC#N)C2CCCC2)c1 (racemic) [Example 136, 3-cyclopentyl-3-(4-(5-methoxy-2-(4-(2-oxooxazolidin-3-yl)phenylamino)pyrimidin-4-yl)-1H-pyrazol-1-yl)propanenitrile]
COc1cnc(Nc2cccc(C(=O)N3CCOCC3)c2)nc1-c1cnn(C(CC#N)C2CC2)c1 (racemic) [Example 328, 3-cyclopropyl-3-[4-(5-methoxy-2-{[3-(morpholin-4-ylcarbonyl)phenyl]amino}pyrimidin-4-yl)-1H-pyrazol-1-yl]propanenitrile]
N#CCC(C1CCCC1)n1cc(-c2ccnc(Nc3ccc(N4CCCCC4=O)cc3)n2)cn1 (racemic) [Example 105, 3-cyclopentyl-3-(4-(2-(4-(2-oxopiperidin-1-yl)phenylamino)pyrimidin-4-yl)-1H-pyrazol-1-yl)propanenitrile]
N#CCC(C1CC1)n1cc(-c2ccnc(Nc3ccc(N4CCOCC4=O)cc3)n2)cn1 (racemic) [Example 180, 3-cyclopropyl-3-(4-(2-(4-(3-oxomorpholino)phenylamino)pyrimidin-4-yl)-1H-pyrazol-1-yl)propanenitrile]
CC(=O)Nc1ccc(Nc2nccc(-c3cnn(C4(CC#N)CN(S(=O)(=O)C5CC5)C4)c3)n2)cc1 [Example 19, N-(4-(4-(1-(3-(cyanomethyl)-1-(cyclopropylsulfonyl)azetidin-3-yl)-1H-pyrazol-4-yl)pyrimidin-2-ylamino)phenyl)acetamide]
CC(=O)N[C@@H]1CCN(C(=O)c2cccc(Nc3nccc(-c4cnn(C(CC#N)C5CCCC5)c4)n3)c2)C1 (mixture of isomers) [Example 158, N-((3R)-1-(3-(4-(1-(2-cyano-1-cyclopentylethyl)-1H-pyrazol-4-yl)pyrimidin-2-ylamino)benzoyl)pyrrolidin-3-yl)acetamide]
CCS(=O)(=O)N1CCC(CC(CC#N)n2cc(-c3nc(Nc4ccc(C(=O)N(C)C)cc4)ncc3C)cn2)CC1 (racemic) [Example 52, 4-(4-(1-(1-cyano-3-(1-(ethylsulfonyl)piperidin-4-yl)propan-2-yl)-1H-pyrazol-4-yl)-5-methylpyrimidin-2-ylamino)-N,N-dimethylbenzamide]
N#CCC(C1CCCC1)n1cc(-c2ccnc(Nc3ccc(NC(=O)c4ccno4)cc3)n2)cn1 (racemic) [Example 188, N-(4-(4-(1-(2-cyano-1-cyclopentylethyl)-1H-pyrazol-4-yl)pyrimidin-2-ylamino)phenyl)isoxazole-5-carboxamide]
N#CCC(C1CCCC1)n1cc(-c2ccnc(Nc3ccc(NC(=O)CN4CCOCC4)cc3)n2)cn1 (racemic) [Example 207, N-(4-(4-(1-(2-cyano-1-cyclopentylethyl)-1H-pyrazol-4-yl)pyrimidin-2-ylamino)phenyl)-2-morpholinoacetamide]
CO[C@H]1CCN(C(=O)c2ccc(Nc3nccc(-c4cnn(C(CC#N)C5CCOCC5)c4)n3)cc2)C1 (mixture of isomers) [Example 316, 3-(4-{2-[(4-{[(3S)-3-methoxypyrrolidin-1-yl]carbonyl}phenyl)amino]pyrimidin-4-yl}-1H-pyrazol-1-yl)-3-(tetrahydro-2H-pyran-4-yl)propanenitrile]
N#CCC1(n2cc(-c3ccnc(Nc4ccc(S(=O)(=O)N5CCOCC5)cc4)n3)cn2)CC(C#N)C1 (single isomer, unassigned) [Example 344, 3-(cyanomethyl)-3-[4-(2-{[4-(morpholin-4-ylsulfonyl)phenyl]amino}pyrimidin-4-yl)-1H-pyrazol-1-yl]cyclobutanecarbonitrile]
Cc1cnc(Nc2ccccc2)nc1-c1cnn(C(CC#N)CC2CCN(C(=O)c3ccc(F)cc3F)CC2)c1 (racemic) [Example 66, 4-(1-(2,4-difluorobenzoyl)piperidin-4-yl)-3-(4-(5-methyl-2-(phenylamino)pyrimidin-4-yl)-1H-pyrazol-1-yl)butanenitrile]
N#CCC(C1CCCC1)n1cc(-c2ccnc(Nc3cccc(NC(=O)CN4CCN(CCO)CC4)c3)n2)cn1 (racemic) [Example 240, N-(3-(4-(1-(2-cyano-1-cyclopentylethyl)-1H-pyrazol-4-yl)pyrimidin-2-ylamino)phenyl)-2-(4-(2-hydroxyethyl)piperazin-1-yl)acetamide]
N#CCC(C1CCCC1)n1cc(-c2ccnc(Nc3cccc(C(=O)N4CCC(O)(Cc5ccccc5)CC4)c3)n2)cn1 (racemic) [Example 151, 3-(4-(2-(3-(4-benzyl-4-hydroxypiperidine-1-carbonyl)phenylamino)pyrimidin-4-yl)-1H-pyrazol-1-yl)-3-cyclopentylpropanenitrile]
N#CCC(C1CCCC1)n1cc(-c2ccnc(Nc3cccc(C(=O)N4CCC(Oc5ccccc5)CC4)c3)n2)cn1 (racemic) [Example 164, 3-cyclopentyl-3-(4-(2-(3-(4-phenoxypiperidine-1-carbonyl)phenylamino)pyrimidin-4-yl)-1H-pyrazol-1-yl)propanenitrile]
N#CCC(C1CCCC1)n1cc(-c2ccnc(Nc3cccc(NC(=O)CN4CCCC4)c3)n2)cn1 (racemic) [Example 118, N-(3-(4-(1-(2-cyano-1-cyclopentylethyl)-1H-pyrazol-4-yl)pyrimidin-2-ylamino)phenyl)-2-(pyrrolidin-1-yl)acetamide]
N#CCC1(n2cc(-c3ccnc(Nc4ccc(OCCN5CCCC5)cc4)n3)cn2)CC(C#N)C1 (single isomer, unassigned) [Example 307, 3-(cyanomethyl)-3-[4-(2-{[4-(2-pyrrolidin-1-ylethoxy)phenyl]amino}pyrimidin-4-yl)-1H-pyrazol-1-yl]cyclobutanecarbonitrile]
COc1cnc(Nc2cccc(C(=O)NCc3cc(C)on3)c2)nc1-c1cnn(C(CC#N)C2CC2)c1 (racemic) [Example 333, 3-({4-[1-(2-cyano-1-cyclopropylethyl)-1H-pyrazol-4-yl]-5-methoxypyrimidin-2-yl}amino)-N-[(5-methylisoxazol-3-yl)methyl]benzamide]
Cn1ccc(S(=O)(=O)Nc2ccc(Nc3nccc(-c4cnn(C(CC#N)C5CCCC5)c4)n3)cc2)n1 (racemic) [Example 190, N-(4-(4-(1-(2-cyano-1-cyclopentylethyl)-1H-pyrazol-4-yl)pyrimidin-2-ylamino)phenyl)-1-methyl-1H-pyrazole-3-sulfonamide]
N#CCC(C1CCCC1)n1cc(-c2ccnc(Nc3cccc(C(=O)N4CCOCC4)c3)n2)cn1 (racemic) [Example 147, 3-cyclopentyl-3-(4-(2-(3-(morpholine-4-carbonyl)phenylamino)pyrimidin-4-yl)-1H-pyrazol-1-yl)propanenitrile]
